In US10597388B2, “Pyridazinone herbicides” (FMC CORPORATION, priority 2014, dated 2020):

Tests used:
Assay in all cases: Test D controlled growth environment herbicide test, pre- and postemergence
Format in all cases: in vivo
[1] = system: lambsquarters (Chenopodium album)
Summary of the method: (§1)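 Species sown in silt loam and sprayed preemergence, or grown in peat-based medium to 2–18 cm (1- to 4-leaf stage) and sprayed postemergence, with compounds in non-phytotoxic solvent plus surfactant. Visual injury scored versus controls after 14–21 d in a controlled environment, 0 (no effect) to 100 (complete control).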

[2] = system: bluegrass (annual bluegrass, Poa annua)
Summary of the method: as §1

[3] = system: oilseed rape (Brassica napus)
Summary of the method: as §1

[4] = system: ryegrass, Italian (Italian ryegrass, Lolium multiflorum)
Summary of the method: as §1

[5] = system: barley, spring (spring barley, Hordeum vulgare)
Summary of the method: as §1

[6] = system: mustard, wild (wild mustard, Sinapis arvensis)
Summary of the method: as §1

[7] = system: field poppy (Papaver rhoeas)
Summary of the method: as §1

[8] = system: chamomile (scentless chamomile, Matricaria inodora)
Summary of the method: as §1

[9] = system: speedwell (bird's-eye speedwell, Veronica persica)
Summary of the method: as §1

[10] = system: wheat, winter (winter wheat, Triticum aestivum)
Summary of the method: as §1

[11] = system: wheat, spring (spring wheat, Triticum aestivum)
Summary of the method: as §1

[12] = system: foxtail, green (green foxtail, Setaria viridis)
Summary of the method: as §1

[13] = system: blackgrass (Alopecurus myosuroides)
Summary of the method: as §1

[14] = Postemergence, 31 g ai/ha, scale 0 to 100 (0 no effect, 100 complete control)
[15] = Postemergence, 125 g ai/ha, visual rating on scale 0 (no effect) to 100 (complete control), 14 to 21 d
[16] = Postemergence, 250 g ai/ha, scale 0 to 100 (0 no effect, 100 complete control)
[17] = Preemergence, 62 g ai/ha, scale 0 to 100 (0 no effect, 100 complete control)
[18] = Preemergence, 125 g ai/ha, scale 0 to 100 (0 no effect, 100 complete control)
[19] = Preemergence, 250 g ai/ha, scale 0 to 100 (0 no effect, 100 complete control)
[20] = postemergence, 62 g ai/ha, scale 0 to 100, 0 no effect, 100 complete control

For `CCOC(=O)Oc1c(C)nn(C)c(=O)c1-c1c(C)ccc2ccccc12` [Compound 73], the “Lambsquarters plant response rating” value [1, 14] was 95, the “Plant response rating, Lambsquarters” value [1, 15] was 100 and the “Plant response rating, Lambsquarters” value [1, 16] was 100. The “Plant response rating (scale of 0 to 100), Lambsquarters” value ([1]; Preemergence, 31 g ai/ha) was 95, the “Plant response rating, Lambsquarters” value [1, 17] was 95 and the “Plant response rating, Lambsquarters” value [1, 18] was 95. The “Plant response rating, Lambsquarters” value [1, 19] was 100, the “Plant response rating, Lambsquarters” value [1, 20] was 95 and the “Bluegrass plant response rating” value [2, 14] was 15. For the same compound, the “Plant response rating, Bluegrass” value [2, 15] was 55, the “Plant response rating, Bluegrass” value [2, 16] was 65 and the “Plant response rating (scale of 0 to 100), Bluegrass” value ([2]; Preemergence, 31 g ai/ha) was 15. For the same compound, the “Plant response rating, Bluegrass” value [2, 17] was 35, the “Plant response rating, Bluegrass” value [2, 18] was 35 and the “Plant response rating, Bluegrass” value [2, 19] was 30. For the same compound, the “Plant response rating, Bluegrass” value [2, 20] was 30, the “Oilseed Rape plant response rating” value [3, 14] was 65 and the “Plant response rating, Oilseed Rape” value [3, 15] was 75. The “Plant response rating, Oilseed Rape” value [3, 16] was 95, the “Plant response rating (scale of 0 to 100), Oilseed Rape” value ([3]; Preemergence, 31 g ai/ha) was 0 and the “Plant response rating, Oilseed Rape” value [3, 17] was 5. The “Plant response rating, Oilseed Rape” value [3, 18] was 0, the “Plant response rating, Oilseed Rape” value [3, 19] was 70 and the “Plant response rating, Oilseed Rape” value [3, 20] was 70. The “Ryegrass, Italian plant response rating” value [4, 14] was 70, the “Plant response rating, Ryegrass, Italian” value [4, 15] was 95 and the “Plant response rating, Ryegrass, Italian” value [4, 16] was 98. For the same compound, the “Plant response rating (scale of 0 to 100), Ryegrass, Italian” value ([4]; Preemergence, 31 g ai/ha) was 95, the “Plant response rating, Ryegrass, Italian” value [4, 17] was 100 and the “Plant response rating, Ryegrass, Italian” value [4, 18] was 100. The “Plant response rating, Ryegrass, Italian” value [4, 19] was 100, the “Plant response rating, Ryegrass, Italian” value [4, 20] was 85 and the “Barley, Spring plant response rating” value [5, 14] was 10. For the same compound, the “Plant response rating, Barley, Spring” value [5, 15] was 30, the “Plant response rating, Barley, Spring” value [5, 16] was 40 and the “Plant response rating (scale of 0 to 100), Barley, Spring” value ([5]; Preemergence, 31 g ai/ha) was 0. The “Plant response rating, Barley, Spring” value [5, 17] was 10, the “Plant response rating, Barley, Spring” value [5, 18] was 0 and the “Plant response rating, Barley, Spring” value [5, 19] was 60. The “Plant response rating, Barley, Spring” value [5, 20] was 25, the “Mustard, Wild plant response rating” value [6, 14] was 85 and the “Plant response rating, Mustard, Wild” value [6, 15] was 100. The “Plant response rating, Mustard, Wild” value [6, 16] was 100, the “Plant response rating (scale of 0 to 100), Mustard, Wild” value ([6]; Preemergence, 31 g ai/ha) was 65 and the “Plant response rating, Mustard, Wild” value [6, 17] was 80. For the same compound, the “Plant response rating, Mustard, Wild” value [6, 18] was 100, the “Plant response rating, Mustard, Wild” value [6, 19] was 100 and the “Plant response rating, Mustard, Wild” value [6, 20] was 100. For the same compound, the “Field Poppy plant response rating” value [7, 14] was 75, the “Plant response rating, Field Poppy” value [7, 15] was 100 and the “Plant response rating, Field Poppy” value [7, 16] was 100. The “Plant response rating (scale of 0 to 100), Field Poppy” value ([7]; Preemergence, 31 g ai/ha) was 70, the “Plant response rating, Field Poppy” value [7, 17] was 100 and the “Plant response rating, Field Poppy” value [7, 18] was 100. For the same compound, the “Plant response rating, Field Poppy” value [7, 19] was 100, the “Plant response rating, Field Poppy” value [7, 20] was 100 and the “Chamomile plant response rating” value [8, 14] was 70. The “Plant response rating, Chamomile” value [8, 15] was 90, the “Plant response rating, Chamomile” value [8, 16] was 100 and the “Plant response rating, Chamomile” value [8, 20] was 85. The “Speedwell plant response rating” value [9, 14] was 70, the “Plant response rating, Speedwell” value [9, 15] was 100 and the “Plant response rating, Speedwell” value [9, 16] was 100. For the same compound, the “Plant response rating (scale of 0 to 100), Speedwell” value ([9]; Preemergence, 31 g ai/ha) was 100, the “Plant response rating, Speedwell” value [9, 17] was 100 and the “Plant response rating, Speedwell” value [9, 18] was 100. For the same compound, the “Plant response rating, Speedwell” value [9, 19] was 100, the “Plant response rating, Speedwell” value [9, 20] was 100 and the “Wheat, Winter plant response rating” value [10, 14] was 25. The “Plant response rating, Wheat, Winter” value [10, 15] was 65, the “Plant response rating, Wheat, Winter” value [10, 16] was 75 and the “Plant response rating (scale of 0 to 100), Wheat, Winter” value ([10]; Preemergence, 31 g ai/ha) was 15. The “Plant response rating, Wheat, Winter” value [10, 17] was 40, the “Plant response rating, Wheat, Winter” value [10, 18] was 50 and the “Plant response rating, Wheat, Winter” value [10, 19] was 75. For the same compound, the “Plant response rating, Wheat, Winter” value [10, 20] was 35, the “Wheat, Spring plant response rating” value [11, 14] was 45 and the “Plant response rating, Wheat, Spring” value [11, 15] was 70. The “Plant response rating, Wheat, Spring” value [11, 16] was 85, the “Plant response rating (scale of 0 to 100), Wheat, Spring” value ([11]; Preemergence, 31 g ai/ha) was 15 and the “Plant response rating, Wheat, Spring” value [11, 17] was 55. The “Plant response rating, Wheat, Spring” value [11, 18] was 70, the “Plant response rating, Wheat, Spring” value [11, 19] was 85 and the “Plant response rating, Wheat, Spring” value [11, 20] was 55. For the same compound, the “Foxtail, Green plant response rating” value [12, 14] was 65, the “Plant response rating, Foxtail, Green” value [12, 15] was 75 and the “Plant response rating, Foxtail, Green” value [12, 16] was 80. The “Plant response rating (scale of 0 to 100), Foxtail, Green” value ([12]; Preemergence, 31 g ai/ha) was 15, the “Plant response rating, Foxtail, Green” value [12, 17] was 20 and the “Plant response rating, Foxtail, Green” value [12, 18] was 50. For the same compound, the “Plant response rating, Foxtail, Green” value [12, 19] was 100, the “Plant response rating, Foxtail, Green” value [12, 20] was 70 and the “Blackgrass plant response rating” value [13, 14] was 65. The “Plant response rating, Blackgrass” value [13, 15] was 80, the “Plant response rating, Blackgrass” value [13, 16] was 90 and the “Plant response rating (scale of 0 to 100), Blackgrass” value ([13]; Preemergence, 31 g ai/ha) was 50. For the same compound, the “Plant response rating, Blackgrass” value [13, 17] was 60, the “Plant response rating, Blackgrass” value [13, 18] was 80 and the “Plant response rating, Blackgrass” value [13, 19] was 85. For the same compound, the “Plant response rating, Blackgrass” value [13, 20] was 70.
